Laboratory results taken from patent US6949648B2, “Condensed pyrazole derivatives, process for producing the same and use thereof” (Takeda Pharmaceutical Company Limited, priority 2000, dated 2005).
Structures can show the parent of a compound that is named as a salt.

melting point [°C]	SMILES
252	Cc1cccc(-n2nc(C)c3c(=O)c4ccccc4[nH]c32)n1 [Example 2-208, 3-Methyl-1-(6-methyl-2-pyridinyl)-1,9-dihydro-4H-pyrazolo[3,4-b]quinolin-4-one]
239 to 240	COC(=O)c1ccc2c(Cl)c3c(C)nn(-c4ccccn4)c3nc2c1 [Example 2-66, Methyl 4-chloro-3-methyl-1-(2-pyridinyl)-1H-pyrazolo[3,4-b]quinoline-7-carboxylate]
203 to 205	Clc1c2ccccc2nc2c1c(CBr)nn2-c1ccccn1 [Example 2-168, 3-Bromomethyl-4-chloro-1-(2-pyridinyl)-1H-pyrazolo[3,4-b]quinoline]
175 to 176	Cc1cc(O)c2c(C)nn(-c3ccccn3)c2n1 [Example 1-18, 3,6-Dimethyl-1-(2-pyridinyl)-1H-pyrazolo[3,4-b]pyridin-4-ol]
112 to 114	CCc1c2ccccc2nc2c1c(C)nn2-c1ccccn1 [Example 2-102, 4-Ethyl-3-methyl-1-(2-pyridinyl)-1H-pyrazolo[3,4-b]quinoline]
251 to 253	Cc1nn(-c2cccc(Cl)n2)c2[nH]c3ccccc3c(=O)c12 [Example 2-110, 1-(6-Chloro-2-pyridinyl)-3-methyl-1,9-dihydro-4H-pyrazolo[3,4-b]quinolin-4-one]
261 to 263	Cc1nn(-c2nccs2)c2nc3ccccc3c(N)c12 [Example 2-150, 3-Methyl-1-(1,3-thiazol-2-yl)-1H-pyrazolo[3,4-b]quinolin-4-ylamine]
241	Cc1nn(-c2ccccn2)c2[nH]c3c(F)cccc3c(=O)c12 [Example 2-85, 8-Fluoro-3-methyl-1-(2-pyridinyl)-1,9-dihydro-4H-pyrazolo[3,4-b]quinolin-4-one]
229 to 231	O=C(O)Cc1nn(-c2ccccn2)c2[nH]c3ccccc3c(=O)c12 [Example 2-177, 2-[4-Oxo-1-(2-pyridinyl)-4,9-dihydro-1H-pyrazolo[3,4-b]quinolin-3-yl]acetic acid]
> 300	O=c1c2cc(F)c(F)cc2[nH]c2c1cnn2-c1ccccn1 [Example 2-199, 6,7-Difluoro-1-(2-pyridinyl)-1,9-dihydro-4H-pyrazolo[3,4-b]quinolin-4-one]
203 to 205	Cc1nn(-c2ccccn2)c2nc3ccccc3c(N3CCOCC3)c12 [Example 2-11, 3-Methyl-4-(4-morpholinyl)-1-(2-pyridinyl)-1H-pyrazolo[3,4-b]quinoline]
285 to 288	Cc1nn(Cc2cccnc2)c2[nH]c3ccccc3c(=O)c12 [Example 2-191, 3-Methyl-1-(3-pyridinylmethyl)-1,9-dihydro-4H-pyrazolo[3,4-b]quinolin-4-one]
248 to 251	COc1cccc2c(N)c3c(C)nn(-c4ccccn4)c3nc12.Cl
254 to 255	Cc1cc(O)nc2c1c(C)nn2-c1ccccn1 [Example 1-23, 3,4-Dimethyl-1-(2-pyridinyl)-1H-pyrazolo[3,4-b]pyridin-6-ol]
160 to 161	CCc1nn(-c2ccccn2)c2nc3cc(F)c(F)cc3c(Cl)c12 [Example 2-200, 4-Chloro-3-ethyl-6,7-difluoro-1-(2-pyridinyl)-1H-pyrazolo[3,4-b]quinoline]
303 to 304	Cc1nn(-c2ccccn2)c2[nH]c3cc(Cl)c(Cl)cc3c(=O)c12 [Example 2-76, 6,7-Dichloro-3-methyl-1-(2-pyridinyl)-1,9-dihydro-4H-pyrazolo[3,4-b]quinolin-4-one]
238 to 239	COc1cc2[nH]c3c(c(C)nn3-c3ccccn3)c(=O)c2cc1OC [Example 2-48, 6,7-Dimethoxy-3-methyl-1-(2-pyridinyl)-1,9-dihydro-4H-pyrazolo[3,4-b]quinolin-4-one]
282 to 283	Cc1nn(-c2cccnc2)c2[nH]c3ccccc3c(=O)c12 [Example 2-138, 3-Methyl-1-(3-pyridinyl)-1,9-dihydro-4H-pyrazolo[3,4-b]quinolin-4-one]
227 to 229	COc1ccc2[nH]c3c(c(C)nn3-c3ccccn3)c(=O)c2c1 [Example 2-43, 6-Methoxy-3-methyl-1-(2-pyridinyl)-1,9-dihydro-4H-pyrazolo[3,4-b]quinolin-4-one]
262 to 265	Cc1nn(Cc2ccccn2)c2nc3ccccc3c(N)c12 (as salt: salt) [Example 2-187, 3-Methyl-1-(2-pyridinylmethyl)-1H-pyrazolo[3,4-b]quinolin-4-ylamine]
237 to 240	Cc1nn(-c2ccncc2)c2[nH]c3cc(F)c(F)cc3c(=O)c12.Cl.Cl
259 to 266	Cc1nn(-c2ccncc2)c2nc3ccccc3c(N)c12.Cl.Cl

melting point [°C]	SMILES
175 to 176	Cc1nn(-c2ccccn2)c2nc3cc(F)c(F)cc3c(Cl)c12 [Example 2-90, 4-Chloro-6,7-difluoro-3-methyl-1-(2-pyridinyl)-1H-pyrazolo[3,4-b]quinoline]
> 300	Cc1nn(-c2ccccn2)c2ncc(C(=O)Nc3ccccc3F)c(O)c12 [Example 1-12, N-(2-Fluorophenyl)-4-hydroxy-3-methyl-1-(2-pyridinyl)-1H-pyrazolo[3,4-b]pyridine-5-carboxamide]
278 to 281	O=c1c2cnn(-c3ccccn3)c2[nH]c2cccc(F)c12 [Example 2-163, 5-Fluoro-1-(2-pyridinyl)-1,9-dihydro-4H-pyrazolo[3,4-b]quinolin-4-one]
284 to 286	Cc1nn(-c2ccccn2)c2[nH]c3cc(N)ccc3c(=O)c12 [Example 2-59, 7-Amino-3-methyl-1-(2-pyridinyl)-1,9-dihydro-4H-pyrazolo[3,4-b]quinolin-4-one]
199 to 200	Cc1nn(-c2ccccn2)c2[nH]c3ccccc3c(=O)c12 [Example 1-39, 3-Methyl-1-(2-pyridinyl)-1,9-dihydro-4H-pyrazolo[3,4-b]quinolin-4-one]
247 to 248	CCc1nn(-c2ccccn2)c2[nH]c3cc(F)c(F)cc3c(=O)c12 [Example 2-201, 3-Ethyl-6,7-difluoro-1-(2-pyridinyl)-1,9-dihydro-4H-pyrazolo[3,4-b]quinolin-4-one]
183 to 186	CCOC(=O)c1nn(-c2ccccn2)c2[nH]c3ccccc3c(=O)c12 [Example 2-180, Ethyl 4-oxo-1-(2-pyridinyl)-4,9-dihydro-1H-pyrazolo[3,4-b]quinoline-3-carboxylate]
87 to 88	Cc1nn(-c2ccccn2)c2nc3ccccc3c(CC(C)C)c12 [Example 2-105, 4-Isobutyl-3-methyl-1-(2-pyridinyl)-1H-pyrazolo[3,4-b]quinoline]
166 to 168	Cc1nn(Cc2ccccn2)c2nc3ccccc3c(N(C)C)c12 [Example 2-188, N,N-Dimethyl-N-[3-methyl-1-(2-pyridinylmethyl)-1H-pyrazolo[3,4-b]quinolin-4-yl]amine]
110 to 112	CCCN(C)c1c2ccccc2nc2c1c(C)nn2-c1ccccn1 [Example 2-9, N-Methyl-N-[3-methyl-1-(2-pyridinyl)-1H-pyrazolo[3,4-b]quinolin-4-yl]-N-propylamine]
206	Cc1nn(-c2ccccn2)c2nc3ccc(C(F)(F)F)cc3c(Cl)c12 [Example 2-39, 4-Chloro-3-methyl-1-(2-pyridinyl)-6-(trifluoromethyl)-1H-pyrazolo[3,4-b]quinoline]
92 to 93	Cc1nn(-c2ccccn2)c2ncc(C(=O)N(C)c3ccccc3)c(OCc3ccccc3)c12 [Example 1-17, 4-(Benzyloxy)-N,3-dimethyl-N-phenyl-1-(2-pyridinyl)-1H-pyrazolo[3,4-b]pyridine-5-carboxamide]
160 to 161	Cc1nn(-c2ccccn2)c2nc3cccc(F)c3c(Cl)c12 [Example 2-78, 4-Chloro-5-fluoro-3-methyl-1-(2-pyridinyl)-1H-pyrazolo[3,4-b]quinoline]
271 to 274	Cc1cccnc1-n1nc(C)c2c(N)c3c(C)cccc3nc21 [Example 2-124, 3,5-Dimethyl-1-(3-methyl-2-pyridinyl)-1H-pyrazolo[3,4-b]quinolin-4-ylamine]
143 to 144	CC(C)c1nn(-c2ccccn2)c2[nH]c3ccccc3c(=O)c12 [Example 2-173, 3-Isopropyl-1-(2-pyridinyl)-1,9-dihydro-4H-pyrazolo[3,4-b]quinolin-4-one]
> 300	Cc1nn(-c2ccccn2)c2ncc(C(=O)Nc3ccccc3)c(O)c12 [Example 1-11, 4-Hydroxy-3-methyl-N-phenyl-1-(2-pyridinyl)-1H-pyrazolo[3,4-b]pyridine-5-carboxamide]
239 to 241	CCOc1cccc(-n2nc(C)c3c(=O)c4cccc(C)c4[nH]c32)n1 [Example 2-130, 3,8-Dimethyl-1-(6-ethoxy-2-pyridinyl)-1,9-dihydro-4H-pyrazolo[3,4-b]quinolin-4-one]
265 to 266	COC(=O)c1ccc2[nH]c3c(c(C)nn3-c3ccccn3)c(=O)c2c1 [Example 2-64, Methyl 3-methyl-4-oxo-1-(2-pyridinyl)-4,9-dihydro-1H-pyrazolo[3,4-b]quinoline-6-carboxylate]
203 to 204	Cc1nn(-c2ccccn2)c2nc3cc(Cl)ccc3c(Cl)c12 [Example 2-73, 4,7-Dichloro-3-methyl-1-(2-pyridinyl)-1H-pyrazolo[3,4-b]quinoline]
229 to 232	Cc1ccc(-n2nc(C)c3c(N)c4ccccc4nc32)nc1 [Example 2-116, 3-Methyl-1-(5-methyl-2-pyridinyl)-1H-pyrazolo[3,4-b]quinolin-4-ylamine]
234 to 237	Cc1nn(-c2cccnc2)c2nc3ccccc3c(N)c12.Cl.Cl
198 to 200	CCCn1c2cc(F)c(F)cc2c(=O)c2c(C)nn(-c3ccccn3)c21 [Example 2-93, 6,7-Difluoro-3-methyl-9-propyl-1-(2-pyridinyl)-1,9-dihydro-4H-pyrazolo[3,4-b]quinolin-4-one]

SMILES	melting point [°C]
Cc1nn(-c2ccccn2)c2[nH]c3cc(F)c(F)cc3c(=O)c12.O (hydrate or solvate) [Example 2-92, 6,7-Difluoro-3-methyl-1-(2-pyridinyl)-1,9-dihydro-4H-pyrazolo[3,4-b]quinolin-4-one monohydrate]	273 to 275
